Patent publication US20260250290A1 (BRISTOL-MYERS SQUIBB COMPANY, priority 2023, published 2026)
Structures can show the parent of a compound that is named as a salt.

Molecular target: T1, full length SGK1 (Homo sapiens, UniProt O00141)
T1 construct: 125 μM full length SGK1 (Life Technologies Part #PR7358A); purchased Life Technologies PR7358A
T1 sequence (O00141 1-431): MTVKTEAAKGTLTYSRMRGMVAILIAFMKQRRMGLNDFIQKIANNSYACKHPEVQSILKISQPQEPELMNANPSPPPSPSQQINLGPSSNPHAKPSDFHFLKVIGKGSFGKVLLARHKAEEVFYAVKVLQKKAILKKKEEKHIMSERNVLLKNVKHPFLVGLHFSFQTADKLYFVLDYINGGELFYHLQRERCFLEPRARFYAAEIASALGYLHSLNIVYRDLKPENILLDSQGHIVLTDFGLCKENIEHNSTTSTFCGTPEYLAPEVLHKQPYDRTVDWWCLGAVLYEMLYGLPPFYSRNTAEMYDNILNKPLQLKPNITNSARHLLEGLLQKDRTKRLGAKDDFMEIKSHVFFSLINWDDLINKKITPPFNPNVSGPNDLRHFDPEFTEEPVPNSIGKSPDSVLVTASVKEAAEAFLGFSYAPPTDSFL
Test: SGK1 inhibition Assay A (Caliper LabChip electrophoretic separation of fluorescent peptide substrate and phosphorylated product)
Assay type: biochemical
Conditions: Assay A; 20 μM ATP, 40 min incubation; read-out: SGK1 IC50

Row | Compound | IC50
1 | CS(=O)(=O)c1ccc(-c2cc(N3CCC[C@@H](NC(=O)c4cc5c(s4)CCCC5)C3)c3c(N)ncnn23)cc1 [Example 90, (R)-N-(1-(4-amino-7-(4-(methylsulfonyl)phenyl)pyrrolo[2,1-f][1,2,4]triazin-5-yl)piperidin-3-yl)-4,5,6,7-tetrahydrobenzo[b] thiophene-2-carboxamide] | 0.049 µM
2 | CC(C)Cn1cc(-c2cc(N3CCC[C@@H](NC(=O)c4cc5ccccc5[nH]4)C3)c3c(N)ncnn23)ccc1=O [Example 507, (R)-N-(1-(4-amino-7-(1-isobutyl-6-ox0-1,6-dihydropyridin-3-yl)pyrrolo[2,1-f][1,2,4]triazin-5-yl)piperidin-3-yl)-1H-indole-2-carboxamide] | 0.082 µM
3 | Cn1cnc(C(=O)N[C@@H]2CCCN(c3cc(-c4ccc(S(C)(=O)=O)cc4)n4ncnc(N)c34)C2)c1 [Example 48, (R)-N-(1-(4-amino-7-(4-(methylsulfonyl)phenyl)pyrrolo[2,1-f][1,2,4]triazin-5-yl)piperidin-3-yl)-1-methyl-1H-imidazole-4-carboxamide] | 0.307 µM
4 | Cc1cc(-c2cc(N3CCC[C@@H](NC(=O)c4sc(C(F)F)cc4OCCN(C)C)C3)c3c(N)ncnn23)cc(C(F)F)n1 [Example 312, (R)-N-(1-(4-amino-7-(2-(difluoromethyl)-6-methylpyridin-4-yl)pyrrolo[2,1-f] [1,2,4]triazin-5-yl)piperidin-3-yl)-5-(difluoromethyl)-3-(2-(dimethylamino)ethoxy)thiophene-2-carboxamide] | 0.032 µM
5 | Nc1ncnn2c(-c3cccc(Cl)c3)cc(N3CCC[C@@H](NC(=O)c4ccc(Cl)s4)C3)c12 [Example 234] | 0.064 µM
6 | CC(=O)N1CCC(Oc2cc(C(F)F)sc2C(=O)N[C@@H]2CCCN(c3cc(-c4cncnc4)n4ncnc(N)c34)C2)CC1 [Example 413, (R)-3-((1-acetylpiperidin-4-yl)oxy)-N-(1-(4-amino-7-(pyrimidin-5-yl)pyrrolo[2,1-f][1,2,4]triazin-5-yl)piperidin-3-yl)-5-(difluoromethyl)thiophene-2-carboxamide] | 0.113 µM
7 | CC(C)(C)OC(=O)CCn1cc(-c2cc(N3CCC[C@@H](NC(=O)c4ccc(Cl)s4)C3)c3c(N)ncnn23)nn1 [Example 863, tert-butyl (R)-3-(4-(4-amino-5-(3-(5-chlorothiophene-2-carboxamido)piperidin-1-yl)pyrrolo[2,1-f][1,2,4]triazin-7-yl)-1H-1,2,3-triazol-1-yl)propanoate] | 0.467 µM
8 | COC(=O)N1CC=C(c2cc(N3CCC[C@@H](NC(=O)c4sc(Cl)cc4OCCN4CCOC(C)C4)C3)c3c(N)ncnn23)C1 (stereo partly drawn) [Example 286, Methyl 3-(4-amino-5-((3R)-3-(5-chloro-3-(2-(2-methylmorpholino)ethoxy)thiophene-2-carboxamido)piperidin-1-yl)pyrrolo[2,1-f] [1,2,4]triazin-7-yl)-2,5-dihydro-1H-pyrrole-1-carboxylate] | 0.023 µM
9 | Nc1ncnn2c(-c3cncnc3)cc(N3CCC[C@@H](NC(=O)c4sc(Cl)cc4OC4CCN(C5CC5)CC4)C3)c12 [Example 617, (R)-N-(1-(4-amino-7-(pyrimidin-5-y1)pyrrolo[2,1-f][1,2,4]triazin-5-yl)piperidin-3-y1)-5-chloro-3-((1-cyclopropylpiperidin-4-yl)oxy)thiophene-2-carboxamide] | 0.024 µM
10 | CC(=O)N1CC=C(c2cc(N3CCC[C@@H](NC(=O)c4sc(C)cc4N4CCN(C)CC4)C3)c3c(N)ncnn23)C1 [Example 269, (R)—N-(1-(7-(1-acetyl-2,5-dihydro-1H-pyrrol-3-yl)-4-aminopyrrolo[2,1-f][1,2,4]triazin-5-yl)piperidin-3-yl)-5-methyl-3-(4-methylpiperazin-1-yl)thiophene-2-carboxamide] | 0.031 µM
11 | COc1cc(C#N)ccc1C(=O)N[C@@H]1CCCN(c2cc(C3=CCN(C(C)=O)C3)n3ncnc(N)c23)C1 [Example 496, (R)-N-(1-(7-(1-acetyl-2,5-dihydro-1H-pyrrol-3-yl)-4-aminopyrrolo[2,1-f][1,2,4]triazin-5-yl)piperidin-3-yl)-4-cyano-2-methoxybenzamide] | 0.344 µM
12 | CS(=O)(=O)c1ccc(-c2cc(N3CCC[C@@H](NC(=O)c4ccno4)C3)c3c(N)ncnn23)cc1 [Example 64, (R)-N-(1-(4-amino-7-(4-(methylsulfonyl)phenyl)pyrrolo[2,1-f][1,2,4]triazin-5-yl)piperidin-3-yl)isoxazole-5-carboxamide] | 0.285 µM
13 | COC(=O)N1CC=C(c2cc(N3CCC[C@@H](NC(=O)c4sc(Cl)cc4OC4CN(CC(F)F)C4)C3)c3c(N)ncnn23)C1 [Example 385, Methyl (R)-3-(4-amino-5-(3-(5-chloro-3-((1-(2,2-difluoroethyl)azetidin-3-yl)oxy)thiophene-2-carboxamido)piperidin-1-yl)pyrrolo[2,1-f][1,2,4]triazin-7-yl)-2,5-dihydro-1H-pyrrole-1-carboxylate] | 0.021 µM
14 | COc1ccc(OC)c(C(=O)N[C@@H]2CCCN(c3cc(-c4ccc(S(C)(=O)=O)cc4)n4ncnc(N)c34)C2)c1 [Example 56, (R)-N-(1-(4-amino-7-(4-(methylsulfonyl)phenyl)pyrrolo[2,1-f][1,2,4]triazin-5-yl)piperidin-3-yl)-2,5-dimethoxybenzamide, TFA] | 0.486 µM
15 | CN(C)CCOc1cc(C2CC2)sc1C(=O)N[C@@H]1CCCN(c2cc(-c3cncnc3)n3ncnc(N)c23)C1 [Example 374, (R)-N-(1-(4-amino-7-(pyrimidin-5-yl)pyrrolo[2,1-f][1,2,4]triazin-5-yl)piperidin-3-yl)-5-cyclopropyl-3-(2-(dimethylamino)ethoxy) thiophene-2-carboxamide] | 0.111 µM

The remaining compounds from weak to strong by IC50, led by results:

Row | IC50 | Compound
16 | 0.021 µM | COC(=O)N1CC=C(c2cc(N3CCC[C@@H](NC(=O)c4sc5ccncc5c4OCCN(C)C)C3)c3c(N)ncnn23)C1 [Example 668, methyl (R)-3-(4-amino-5-(3-(3-(2-(dimethylamino)ethoxy)thieno [3,2-c]pyridine-2-carboxamido)piperidin-1-yl)pyrrolo[2,1-f] [1,2,4]triazin-7-yl)-2,5-dihydro-1H-pyrrole-1-carboxylate]
17 | 0.021 µM | COC(=O)N1CC=C(c2cc(N3CCC[C@@H](NC(=O)c4sc(Cl)cc4OCCN4CC(OC)C4)C3)c3c(N)ncnn23)C1 [Example 290]
18 | 0.018 µM | COC(=O)N1CC=C(c2cc(N3CCC[C@@H](NC(=O)c4sc(Cl)cc4OCC4CNC4)C3)c3c(N)ncnn23)C1 [Example 634, Methyl (R)-3-(4-amino-5-(3-(3-(azetidin-3~ylmethoxy)-5-chlorothiophene-2-carboxamido)piperidin-1-y1)pyrrolo[2,1-f][1,2,4]triazin-7-y1)-2,5-dihydro-\H-pyrrole-1-carboxylate]
19 | 0.016 µM | Nc1ncnn2c(-c3ccnc(C(F)F)c3)cc(N3CCC[C@@H](NC(=O)c4sc(Cl)cc4O)C3)c12 [Example 481, (R)-N-(1-(4-amino-7-(2-(difluoromethyl)pyridin-4-yl)pyrrolo[2,1-f][1,2,4]triazin-5-yl)piperidin-3-yl)-5-chloro-3-hydroxythiophene-2-carboxamide]
20 | 0.016 µM | CC(=O)N1CC=C(c2cc(N3CCC[C@@H](NC(=O)c4sc5ccccc5c4OCCN(C)C)C3)c3c(N)ncnn23)C1 [Example 662, (R)-N-(1-(7-(1-acetyl-2,5-dihydro-1H-pyrrol-3-yl)-4-aminopyrrolo[2,1-f][1,2,4]triazin-5-yl)piperidin-3-yl)-3-(2-(dimethylamino)ethoxy)benzo[b]thiophene-2-carboxamide]
21 | 0.008 µM | CC(=O)N1CC=C(c2cc(N3CCC[C@@H](NC(=O)c4nc(N5CCN(C)CC5)ccc4F)C3)c3c(N)ncnn23)C1 [Example 744, (R)-N-(1-(7-(1-acetyl-2,5-dihydro-1H-pyrrol-3-yl)-4-aminopyrrolo[2,1-f][1,2,4]triazin-5-yl)piperidin-3-yl)-3-fluoro-6-(4-methylpiperazin-1-yl)picolinamide]
22 | 0.005 µM | COC(=O)N1CC=C(c2cc(N3CCC[C@@H](NC(=O)c4sc(C(F)F)cc4OC4CCN(C(C)=O)CC4)C3)c3c(N)ncnn23)C1 [Example 411, methyl (R)-3-(5-(3-(3-((1-acetylpiperidin-4-yl)oxy)-5-(difluoromethyl)thiophene-2-carboxamido)piperidin-1-yl)-4-aminopyrrolo[2,1-f][1,2,4]triazin-7-yl)-2,5-dihydro-1H-pyrrole-1-carboxylate]
23 | 0.003 µM | N#Cc1ncn(-c2ccc(-c3cc(N4CCC[C@@H](NC(=O)c5ccc(Cl)s5)C4)c4c(N)ncnn34)cn2)n1 [Example 250, (R)-N-(1-(4-amino-7-(6-(3-cyano-1H-1,2,4-triazol-1-yl)pyridin-3-yl)pyrrolo[2,1-f][1,2,4]triazin-5-yl)piperidin-3-yl)-5-chlorothiophone-2-carboxamide, TFA]
24 | 0.002 µM | Cc1cc(-c2cc(N3CCC[C@@H](NC(=O)c4sc(C(F)F)cc4OC4CCN(C)CC4)C3)c3c(N)ncnn23)cnc1C#N [Example 439, (R)-N-(1-(4-amino-7-(6-cyano-5-methylpyridin-3-yl)pyrrolo[2,1-f][1,2,4]triazin-5-yl)piperidin-3-yl)-5-(difluoromethyl)-3-((1-methylpiperidin-4-yl)oxy)thiophene-2-carboxamide]
25 | 0.002 µM | CN1CCC(Oc2cc(Cl)sc2C(=O)N[C@@H]2CCCN(c3cc(-c4ccc(C(N)=O)c(F)c4)n4ncnc(N)c34)C2)CC1 [Example 589, (R)-N-(1-(4-amino-7-(4-carbamoyl-3-fluorophenyl)pyrrolo[2,1-f][1,2,4]triazin-5-yl)piperidin-3-yl)-5-chloro-3-((1-methylpiperidin-4-yl)oxy)thiophene-2-carboxamide]
